Experiments:
JAK1 = JAK1 (Homo sapiens (Human), UniProt P23458); assay: JAK1 enzyme activity assay (Thermo Fisher SelectScreen, Z-lyte); type: biochemical; settings: read-out: JAK1 Inhibition IC50
Summary of the method: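 Z-lyte assay with 21.2-91.5 ng JAK and […] Tyr 06 in 50 mM HEPES pH 7.0, 10 mM MgCl2, 1 mM EGTA, 0.01% BRIJ-35; 1 h kinase reaction, then development reagent. 11-point dose-response from […] to 0.34 nM, 2% DMSO vehicle; IC50 from 4-parameter logistic fit of emission ratio.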

[1] = system: IL-2 stimulated STAT5 phosphorylation on Tyr694 (JAK1/3); assay: JAK1/3 cellular target modulation: IL-2 stimulated phospho-STAT5 in PBMC; type: cell-based; settings: human PBMC, IL-2 25 ng/ml; read-out: IL2-STAT5 IC50
Summary of the method: (§1)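 Thawed human PBMC (200,000/well, RPMI/10% FBS) were preincubated with compound for 1 h at 37 °C, added from 10× stocks in 1% DMSO. Stimulation and read-out: IL-2 25 ng/ml, 5 min, pSTAT5 by MSD; IL-12 1.7 ng/ml, 25 min, pSTAT4 by MSD; IFNγ 10 ng/ml, 10 min, pSTAT1 by sandwich ELISA.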

[2] = system: IFNγ stimulated STAT1 phosphorylation on Tyr701 (JAK1/2); assay: JAK1/2 cellular target modulation: IFNγ stimulated phospho-STAT1 in PBMC; type: cell-based; settings: human PBMC, IFNγ 10 ng/ml; read-out: Infγ-STAT1 IC50
Summary of the method: as §1

[3] = system: IL-12 stimulated STAT4 phosphorylation on Tyr693 (JAK2/TYK2); assay: JAK2/TYK2 cellular target modulation: IL-12 stimulated phospho-STAT4 in PBMC; type: cell-based; settings: human PBMC, IL-12 1.7 ng/ml; read-out: IL12-STAT4 IC50
From the text: JAK Cellular Target Modulation Assays
Target modulation was based upon the ability of a compound to inhibit JAK isoform specific phosphorylation of selected substrates. IL-2 stimulated STAT5 phosphorylation on Tyr694 was used to assess JAK1/3 compound selectivity. GM-CSF stimulated STAT5 phosphorylation on Tyr694 was used to assess JAK2 compound selectivity. IFNγ stimulated STAT1 phosphorylation on Tyr701 was used to assess JAK1/2 compound selectivity. IL-12 stimulated STAT4 phosphorylation on Tyr693 was used to assess JAK2/TYK2 compound selectivity. For all four assays, human PBMC from frozen stocks were thawed, pelleted, resuspended in complete media (90% RPMI, 10% heat inactivated FBS, 10 mM HEPES, 47 μM 2-ME, pen/strep) and placed in wells of a 96 well V-bottom plate at 200,000 per well in 120 μl complete media. Compounds were added as 15 μl per well of 10× working stock solutions in complete media with 1% DMSO (or medium with 1% DMSO for controls) and placed on a plate shaker in a 37° C. incubator with 5% CO2 for 1 hour with gentle shaking (setting of 3). Stimulation used the addition of soluble cytokines. For the JAK1/3 phospho-STAT5 assay, 15 μl of 10× working stock recombinant human IL-2 was added to a final concentration of 25 ng/ml. For the JAK2 phospho-STAT5 assay, 15 μl of 10× working stock recombinant human GM-CSF was added to a final concentration of 5 ng/ml. For the JAK1/2 phospho-STAT1 assay, 15 μl of 10× working stock of recombinant human IFNγ was added to a final concentration of 10 ng/ml. For the JAK2/TYK2 phospho-STAT4 assay, 15 μl of 10× working stock of recombinant human IL-12 was added to a final concentration of 1.7 ng/ml. Plates were then placed back on the plate shaker in the incubator for an additional 5, 5, 10, and 25 minutes respectively upon which the plates were removed from the incubator, sealed with a plate sealer and the cells pelleted at 400×g for 5 minutes. After pelleting, the media was removed by aspiration and the cells were lysed in assay specific cell lysis buffer. The levels of phospho-STATS were determined using a Phospho (Tyr694) STAT5a,b Whole Cell Lysate kit from Meso Scale Discovery. Levels of phospho-STAT1 were determined using a CST-PathScan Phospho-STAT1 (Tyr701) Sandwich ELISA kit. Levels of phospho-STAT4 were determined using a Phospho-STAT4 (Tyr693) Whole Cell Lysate kit from Meso Scale Discovery.

JAK3 (a.a. 781-1124) = JAK3 (a.a. 781-1124) (Homo sapiens (Human), UniProt P52333); assay: JAK3 enzyme activity assay (SRCtide phosphorylation, Caliper); type: biochemical; settings: 1 uM ATP; read-out: JAK3 Inhibition IC50
Tyk-2 = Tyk-2 (Homo sapiens (Human), UniProt P29597); assay: Tyk-2 enzyme activity assay (Thermo Fisher SelectScreen, Z-lyte); type: biochemical; settings: read-out: Tyk-2 Inhibition IC50
Summary of the method: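 Z-lyte FRET assay: 3.75–15 ng TYK2 with […] Tyr 03 peptide in HEPES pH 7.0, MgCl2, EGTA, BRIJ-35; 1 h reaction, then development reagent. 11-point dose-response, 2% DMSO; IC50 via 4-parameter fit of emission ratio, background without enzyme.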

JAK2 = JAK2 (Homo sapiens (Human), UniProt O60674); assay: JAK2 enzyme activity assay (Thermo Fisher SelectScreen, Z-lyte); type: biochemical; settings: read-out: JAK2 Inhibition IC50
Summary of the method: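 IC50 values derive from a 4-parameter logistic fit of emission ratio across an 11-point series ([…] to 0.34 nM, 2% DMSO vehicle). Reaction: 1 h, 0.12-0.5 ng JAK2, […] Tyr 06 in HEPES pH 7.5 buffer with MgCl2, EGTA, BRIJ-35, read by Z-lyte development.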

Chain of JAK1 (P23458 whole entry): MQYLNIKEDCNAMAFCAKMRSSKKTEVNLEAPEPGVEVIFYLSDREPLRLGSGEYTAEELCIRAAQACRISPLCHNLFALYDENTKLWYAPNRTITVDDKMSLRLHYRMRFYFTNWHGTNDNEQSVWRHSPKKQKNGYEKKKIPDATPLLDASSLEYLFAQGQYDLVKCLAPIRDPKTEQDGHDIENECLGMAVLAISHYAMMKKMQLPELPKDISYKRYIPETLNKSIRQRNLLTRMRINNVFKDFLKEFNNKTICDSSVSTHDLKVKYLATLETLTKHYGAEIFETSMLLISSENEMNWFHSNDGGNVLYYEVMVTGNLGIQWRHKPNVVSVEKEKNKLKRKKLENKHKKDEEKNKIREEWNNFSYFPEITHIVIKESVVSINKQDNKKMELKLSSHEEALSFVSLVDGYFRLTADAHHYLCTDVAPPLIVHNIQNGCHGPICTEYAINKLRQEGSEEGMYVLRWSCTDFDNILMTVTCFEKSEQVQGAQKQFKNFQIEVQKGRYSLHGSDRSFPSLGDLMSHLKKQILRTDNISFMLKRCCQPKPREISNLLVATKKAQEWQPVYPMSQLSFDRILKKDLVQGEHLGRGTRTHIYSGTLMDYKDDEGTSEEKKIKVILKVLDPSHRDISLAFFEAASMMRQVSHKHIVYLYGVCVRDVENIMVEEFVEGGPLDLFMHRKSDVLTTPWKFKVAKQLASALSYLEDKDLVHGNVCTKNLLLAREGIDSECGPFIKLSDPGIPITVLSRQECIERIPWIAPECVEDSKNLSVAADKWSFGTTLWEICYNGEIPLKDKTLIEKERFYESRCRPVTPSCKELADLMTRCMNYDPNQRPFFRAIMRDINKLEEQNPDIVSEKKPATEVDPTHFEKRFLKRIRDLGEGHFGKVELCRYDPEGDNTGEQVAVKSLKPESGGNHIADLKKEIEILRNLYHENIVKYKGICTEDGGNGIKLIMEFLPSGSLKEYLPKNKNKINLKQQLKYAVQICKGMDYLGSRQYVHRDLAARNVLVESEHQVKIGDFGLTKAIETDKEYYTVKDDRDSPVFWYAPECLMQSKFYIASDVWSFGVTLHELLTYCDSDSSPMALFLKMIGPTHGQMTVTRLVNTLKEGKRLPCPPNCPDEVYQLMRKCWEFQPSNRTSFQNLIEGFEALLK
Chain of JAK3 (a.a. 781-1124) (P52333 781-1124): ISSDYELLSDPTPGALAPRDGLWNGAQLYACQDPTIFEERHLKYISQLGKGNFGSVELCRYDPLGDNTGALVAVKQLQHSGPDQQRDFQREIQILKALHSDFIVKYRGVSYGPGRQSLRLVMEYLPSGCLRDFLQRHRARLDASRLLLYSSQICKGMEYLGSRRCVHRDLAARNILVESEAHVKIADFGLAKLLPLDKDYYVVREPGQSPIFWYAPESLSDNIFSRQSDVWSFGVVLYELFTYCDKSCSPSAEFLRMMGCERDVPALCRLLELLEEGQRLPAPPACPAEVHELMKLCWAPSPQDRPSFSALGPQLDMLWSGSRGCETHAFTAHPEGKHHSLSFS
Chain of JAK2 (O60674 whole entry): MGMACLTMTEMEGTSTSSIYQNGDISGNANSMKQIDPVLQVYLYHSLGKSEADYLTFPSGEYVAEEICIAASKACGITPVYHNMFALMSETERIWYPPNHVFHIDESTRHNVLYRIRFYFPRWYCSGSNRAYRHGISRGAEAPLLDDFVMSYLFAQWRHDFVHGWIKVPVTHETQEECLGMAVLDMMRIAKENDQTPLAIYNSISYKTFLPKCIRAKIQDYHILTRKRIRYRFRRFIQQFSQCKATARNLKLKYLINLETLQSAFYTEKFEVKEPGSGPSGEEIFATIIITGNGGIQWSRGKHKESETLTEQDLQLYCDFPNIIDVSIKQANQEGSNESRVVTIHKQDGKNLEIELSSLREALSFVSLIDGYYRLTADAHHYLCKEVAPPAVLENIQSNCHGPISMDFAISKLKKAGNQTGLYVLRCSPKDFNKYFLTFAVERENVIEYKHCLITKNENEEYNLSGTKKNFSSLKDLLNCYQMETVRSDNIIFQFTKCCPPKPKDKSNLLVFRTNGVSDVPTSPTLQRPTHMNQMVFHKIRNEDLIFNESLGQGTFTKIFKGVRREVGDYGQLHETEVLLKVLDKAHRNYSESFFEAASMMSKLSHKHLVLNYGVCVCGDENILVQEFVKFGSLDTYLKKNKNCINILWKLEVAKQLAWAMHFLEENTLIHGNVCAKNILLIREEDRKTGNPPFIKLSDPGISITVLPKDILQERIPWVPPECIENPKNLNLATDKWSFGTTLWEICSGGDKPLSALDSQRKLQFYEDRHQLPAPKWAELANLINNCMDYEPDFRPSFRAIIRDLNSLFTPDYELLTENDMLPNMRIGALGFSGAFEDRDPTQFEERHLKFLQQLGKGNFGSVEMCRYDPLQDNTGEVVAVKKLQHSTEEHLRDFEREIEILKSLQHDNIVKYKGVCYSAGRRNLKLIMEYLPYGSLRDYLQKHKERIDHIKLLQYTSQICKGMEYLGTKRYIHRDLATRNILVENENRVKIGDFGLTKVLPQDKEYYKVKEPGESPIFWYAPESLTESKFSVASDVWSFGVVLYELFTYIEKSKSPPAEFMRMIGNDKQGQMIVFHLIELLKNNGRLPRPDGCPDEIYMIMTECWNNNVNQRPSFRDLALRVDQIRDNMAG
Chain of Tyk-2 (P29597 whole entry): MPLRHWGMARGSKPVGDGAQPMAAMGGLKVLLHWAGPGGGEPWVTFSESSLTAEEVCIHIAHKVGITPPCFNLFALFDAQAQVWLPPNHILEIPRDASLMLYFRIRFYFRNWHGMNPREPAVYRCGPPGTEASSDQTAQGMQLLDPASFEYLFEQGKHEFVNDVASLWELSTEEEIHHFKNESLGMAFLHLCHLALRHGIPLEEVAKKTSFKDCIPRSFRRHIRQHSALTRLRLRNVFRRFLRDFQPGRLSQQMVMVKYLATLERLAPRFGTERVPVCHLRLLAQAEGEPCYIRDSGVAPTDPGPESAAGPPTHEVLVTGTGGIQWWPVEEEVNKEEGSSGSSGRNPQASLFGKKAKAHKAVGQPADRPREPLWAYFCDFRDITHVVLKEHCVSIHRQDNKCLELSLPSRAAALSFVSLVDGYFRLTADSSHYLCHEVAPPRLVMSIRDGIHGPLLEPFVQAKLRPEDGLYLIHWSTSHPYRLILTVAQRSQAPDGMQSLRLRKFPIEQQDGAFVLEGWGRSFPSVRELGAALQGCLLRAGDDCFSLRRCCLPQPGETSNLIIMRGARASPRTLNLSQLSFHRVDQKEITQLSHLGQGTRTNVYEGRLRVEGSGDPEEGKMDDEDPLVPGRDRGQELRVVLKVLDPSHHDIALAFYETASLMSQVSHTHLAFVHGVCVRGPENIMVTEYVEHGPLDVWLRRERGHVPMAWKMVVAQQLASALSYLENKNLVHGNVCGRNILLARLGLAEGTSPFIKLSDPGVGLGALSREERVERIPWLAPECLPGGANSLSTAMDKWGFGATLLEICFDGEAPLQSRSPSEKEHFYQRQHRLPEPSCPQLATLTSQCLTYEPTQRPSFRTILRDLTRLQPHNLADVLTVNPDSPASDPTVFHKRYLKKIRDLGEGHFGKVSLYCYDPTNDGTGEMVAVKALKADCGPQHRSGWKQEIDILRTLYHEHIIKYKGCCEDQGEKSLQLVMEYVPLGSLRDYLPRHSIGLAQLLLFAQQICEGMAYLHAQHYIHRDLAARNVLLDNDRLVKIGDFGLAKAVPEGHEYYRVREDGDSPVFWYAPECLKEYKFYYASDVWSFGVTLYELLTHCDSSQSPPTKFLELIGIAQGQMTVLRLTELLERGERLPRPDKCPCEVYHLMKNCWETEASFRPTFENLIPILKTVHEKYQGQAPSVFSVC

SMILES	IC50 (JAK1) [nM]	IC50 [1] [nM]	IC50 [2] [nM]	IC50 [3] [nM]	IC50 (JAK3 (a.a. 781-1124)) [nM]	IC50 (Tyk-2) [nM]	IC50 (JAK2) [nM]
CS(=O)(=O)c1cnc(-c2cnc3[nH]ccc3c2N[C@@H]2CCCN(CCC#N)C2)s1 [Example 47, (R)-3-(3-((5-(5-(methylsulfonyl)thiazol-2-yl)-1H-pyrrolo[2,3-b]pyridin-4-yl)amino)piperidin-1-yl)propanenitrile]	10 to 100	100 to 1000	> 1000	> 1000	10 to 100	10 to 100	10 to 100
Cc1nccc(-c2cnc3[nH]ccc3c2N[C@@H]2C[C@H](C)CN(C(=O)CC#N)C2)n1 [Example 52, 3-((3S,5R)-3-methyl-5-((5-(2-methylpyrimidin-4-yl)-1H-pyrrolo[2,3-b]pyridin-4-yl)amino)piperidin-1-yl)-3-oxopropanenitrile]	≤ 10	≤ 100	≤ 100	100 to 1000	≤ 10	≤ 10	≤ 10
CS(=O)(=O)c1ccc(-c2cnc3[nH]ccc3c2N[C@@H]2CCCN(C(=O)CC#N)C2)nc1 [Example 55, (R)-3-(3-((5-(5-(methylsulfonyl)pyridin-2-yl)-1H-pyrrolo[2,3-b]pyridin-4-yl)amino)piperidin-1-yl)-3-oxopropanenitrile]	≤ 10	≤ 100	100 to 1000	> 1000	≤ 10	≤ 10	10 to 100
N#CCC(=O)N1CCC[C@@H](Nc2c(-c3ccn(CCO)n3)cnc3[nH]ccc23)C1 [Example 62, (R)-3-(3-((5-(1-(2-hydroxyethyl)-1H-pyrazol-3-yl)-1H-pyrrolo[2,3-b]pyridin-4-yl)amino)piperidin-1-yl)-3-oxopropanenitrile]	≤ 10	≤ 100	100 to 1000	> 1000	≤ 10	10 to 100	≤ 10
N#CCC(=O)N1CCC[C@@H](Nc2c(-c3cccc(CO)n3)cnc3[nH]ccc23)C1 [Example 63]	≤ 10	≤ 100	100 to 1000	> 1000	≤ 10	10 to 100	≤ 10
C[C@H]1C[C@@H](Nc2c(-c3cccc(CO)n3)cnc3[nH]ccc23)CN(C(=O)CC#N)C1 [Example 64, 3-((3R,5S)-3-((5-(6-(hydroxymethyl)pyridin-2-yl)-1H-pyrrolo[2,3-b]pyridin-4-yl)amino)-5-methylpiperidin-1-yl)-3-oxopropanenitrile]	≤ 10	≤ 100	≤ 100	> 1000	≤ 10	≤ 10	≤ 10

More lines, now with the values ahead:

IC50 (JAK1) [nM]	IC50 [1] [nM]	IC50 [2] [nM]	IC50 [3] [nM]	IC50 (JAK3 (a.a. 781-1124)) [nM]	IC50 (Tyk-2) [nM]	IC50 (JAK2) [nM]	SMILES
≤ 10	≤ 100	100 to 1000	100 to 1000	≤ 10	≤ 10	≤ 10	CCOC(=O)c1cnc(-c2cnc3[nH]ccc3c2N[C@@H]2CCCN(C(=O)CC#N)C2)s1 [Example 42, ethyl (R)-2-(4-((1-(2-cyanoacetyl)piperidin-3-yl)amino)-1H-pyrrolo[2,3-b]pyridin-5-yl)thiazole-5-carboxylate]
≤ 10	≤ 100	100 to 1000	> 1000	10 to 100	10 to 100	10 to 100	COc1nccc(-c2cnc3[nH]ccc3c2N[C@@H]2CCCN(C(=O)CC#N)C2)n1 [Example 43, (R)-3-(3-((5-(2-methoxypyrimidin-4-yl)-1H-pyrrolo[2,3-b]pyridin-4-yl)amino)piperidin-1-yl)-3-oxopropanenitrile]
≤ 10	100 to 1000	100 to 1000	> 1000	10 to 100	10 to 100	10 to 100	N#CCC(=O)N1CCC[C@@H](Nc2c(-c3cccc(N)n3)cnc3[nH]ccc23)C1 [Example 44, (R)-3-(3-((5-(6-aminopyridin-2-yl)-1H-pyrrolo[2,3-b]pyridin-4-yl)amino)piperidin-1-yl)-3-oxopropanenitrile]
≤ 10	100 to 1000	100 to 1000	> 1000	≤ 10	≤ 10	≤ 10	C[S+]([O-])c1cnc(-c2cnc3[nH]ccc3c2N[C@@H]2CCCN(C(=O)CC#N)C2)s1 (stereo partly drawn) [Example 45, 3-((3R)-3-((5-(5-(methylsulfinyl)thiazol-2-yl)-1H-pyrrolo[2,3-b]pyridin-4-yl)amino)piperidin-1-yl)-3-oxopropanenitrile]
≤ 10	≤ 100	≤ 100	100 to 1000	≤ 10	≤ 10	≤ 10	CS(=O)(=O)c1cnc(-c2cnc3[nH]ccc3c2N[C@@H]2CCCN(C(=O)CC#N)C2)s1 [Example 46, (R)-3-(3-((5-(5-(methylsulfonyl)thiazol-2-yl)-1H-pyrrolo[2,3-b]pyridin-4-yl)amino)piperidin-1-yl)-3-oxopropanenitrile]
≤ 10	≤ 100	100 to 1000	> 1000	10 to 100	10 to 100	10 to 100	CS(=O)(=O)c1cnc(-c2cnc3[nH]ccc3c2N[C@@H]2CCCN(C(=O)CC#N)C2)o1 [Example 48, (R)-3-(3-((5-(5-(methylsulfonyl)oxazol-2-yl)-1H-pyrrolo[2,3-b]pyridin-4-yl)amino)piperidin-1-yl)-3-oxopropanenitrile]
≤ 10	≤ 100	≤ 100	> 1000	≤ 10	10 to 100	10 to 100	CSc1nccc(-c2cnc3[nH]ccc3c2N[C@@H]2CCCN(C(=O)CC#N)C2)n1 [Example 49, (R)-3-(3-((5-(2-(methylthio)pyrimidin-4-yl)-1H-pyrrolo[2,3-b]pyridin-4-yl)amino)piperidin-1-yl)-3-oxopropanenitrile]
≤ 10	100 to 1000	100 to 1000	> 1000	≤ 10	10 to 100	≤ 10	N#CCC(=O)N1CCC[C@@H](Nc2c(-c3ccnc(N)n3)cnc3[nH]ccc23)C1 [Example 51, (R)-3-(3-((5-(2-aminopyrimidin-4-yl)-1H-pyrrolo[2,3-b]pyridin-4-yl)amino)piperidin-1-yl)-3-oxopropanenitrile]

Source: US11420966B2 (ACLARIS THERAPEUTICS, INC., priority 2019, dated 2022)
